Experimental data reported in patent US11932599B2, “Ferroptosis inducing compound, compositions comprising the same, and methods of inducing ferroptosis” (UNIVERSITY OF MASSACHUSETTS, priority 2021, dated 2024).

What was measured:
[1] = system: HT-1080 cells; experiment: Cell viability assay (Alamar Blue), cytotoxicity in HT-1080 cells; assay type: cell-based, human
Description: (§1) Cell lines and media. In the following example, HT-1080 (Human fibrosarcoma harboring NrasQ61K) cells (obtained from ATCC) were grown in DMEM high-glucose media with 1% non-essential amino acids (Life Technologies) and 10% FBS. 143B cells were grown in DMEM high-glucose media with 1% glutamine and 10% FBS. Calu-1 cells were grown in McCoy's 5A media (Life Technologies) supplemented with 10% FBS. All the cell lines were grown at 37° C. under 5% CO2. Cell lines were not tested for mycoplasma. In addition, the panel of four lung cancer (NCI-H23; SK-Mes-1; Calu6 and A549) were purchased from ATCC. They were cultured according to the ATCC protocol of each cell line. The non-malignant breast epithelial cells (MCF10A) were maintained in DMEM/F12 medium supplemented with 5% horse serum, epidermal growth factor (20 ng/ml), insulin (10 μg/ml), hydrocortisone ([…]), cholera toxin (100 ng/ml), and penicillin/streptomycin.
Cell viability assay. 9,000 cells per 100 μl were seeded in each well in 96-well plates. Lethal compounds were dissolved in DMSO. In the mother plates, DMSO stock of each compound was further diluted with media to create 20 μM or 10 μm as highest concentrations, respectively and a twofold, 9-point dilution series was prepared. Cells were seeded for 24 h and media were replaced by the mother plate drug-dilution media. When ferroptosis inhibitors (for example, 500 nM Ferrostatin-1, 100 μM α-tocopherol, 152 μM deferoxamine) were used in cotreatments with lethal inducers, they were supplemented to cell culture when the lethal compounds were added, and the cells were then incubated for 48 h. When other cell-death-modulating compounds (100 nM sodium selenite) were used in cotreatments, they were supplemented to cell culture for 24 h before lethal compounds were added to cell culture, after which cells were further incubated for 48 h at 37° C. under 5% CO2. On the day of the viability measurement, we added 25 μl per well of 50% Alamar Blue diluted in media (Life Technologies) and further incubated the cells at 37° C. for 6 h. Fluorescence intensity (excitation/emission: 540/590) was measured with a Victor 3 plate reader (PerkinElmer), and the normalized viability was calculated as VL=(IL−I0)/(IV−I0), where VL is the normalized viability, I0 is the raw fluorescence intensities from the wells containing media, IV is the cells treated with a vehicle (negative control), and IL is the cells with the lethal compound (L), respectively. The viability was typically measured in at least biological duplicate. A representative dose-response curve, the mean and standard error of normalized viability from one replicate were plotted.
Statistical analysis and data visualization. Dose-response curve plotting and EC50 computation were performed with Prism 6.0c (GraphPad Software).
Various compounds were selected for analysis of their cytotoxicity in HT-1080 cells according to the procedure described above.

[2] = system: NCI-H23 cells; experiment: Cell viability assay, cytotoxicity in NCI-H23 cells; assay type: cell-based; settings: NCI-H23 cells, 48 hours
Description: as §1
Cell viability assay. 9,000 cells per 100 μl were seeded in each well in 96-well plates. Lethal compounds were dissolved in DMSO. In the mother plates, DMSO stock of each compound was further diluted with media to create 20 μM or 10 μm as highest concentrations, respectively and a twofold, 9-point dilution series was prepared. […] Fluorescence intensity (excitation/emission: 540/590) was measured with a Victor 3 plate reader (PerkinElmer), and the normalized viability was calculated as VL=(IL−I0)/(IV−I0), where VL is the normalized viability, I0 is the raw fluorescence intensities from the wells containing media, IV is the cells treated with a vehicle (negative control), and IL is the cells with the lethal compound (L), respectively. The viability was typically measured in at least biological duplicate. […]
In addition, the compound TKD1079 was also analyzed for cytotoxicity in four different lung cancer cell lines according to the procedure described above. […] Cytotoxicity was also determined against MCF10A non-malignant breast epithelial cell, NCI-H1299 human non-small cell lung carcinoma cell line, and Beas-2B epithelial cells isolated from normal human bronchial epithelium.

[3] = system: HT-1080 cells; experiment: Cell viability assay in HT-1080 cells, cotreatment with cell-death inhibitors; assay type: cell-based, human; settings: HT-1080, 48 h; for EC50: Homo sapiens, read-out: EC50 (μM) of FIN56 + inhbitor
[4] = Homo sapiens, HT-1080, HT-1080 cells, compound alone, read-out: EC 50

Compound: O=S(=O)(NCCF)c1ccc2c(c1)C(=NO)c1cc(S(=O)(=O)NCCF)ccc1-2 [TKD1027, N^2,N^7-bis(2-fluoroethyl)-9-(hydroxyimino)-9H-fluorene-2,7-disulfonamide]
- EC50 [1, 4]: > 20 µM

Compound: C#CC1(O)c2cc(S(=O)(=O)NC3CCCCC3)ccc2-c2ccc(S(=O)(=O)NC3CCCCC3)cc21 [TKD1066, N^2,N^7-dicyclohexyl-9-ethynyl-9-hydroxy-9H-fluorene-2,7-disulfonamide]
- EC50 [1, 4]: 4.59 µM

Compound: O=S(=O)(NC1C2CC3CC(C2)CC1C3)c1ccc2c(c1)C(=NO)c1cc(S(=O)(=O)NC3C4CC5CC(C4)CC3C5)ccc1-2 (stereo not drawn) [TKD2043, N^2,N^7-di(adamantan-2-yl)-9-(hydroxyimino)-9H-fluorene-2,7-disulfonamide]
- cytotoxicity (cell viability) in NCI-H23 cells [2]: significantly more potent than TKD1079 and FIN56

Compound: CCCNS(=O)(=O)c1ccc2c(c1)C(=NO)c1cc(S(=O)(=O)NCCC)ccc1-2 [TKD1034E, 9-(hydroxyimino)-N^2,N^7-dipropyl-9H-fluorene-2,7-disulfonamide]
- EC50 [1, 4]: 5.67 µM

Compound: C#CCON=C1c2cc(S(=O)(=O)NC3CCCCC3)ccc2-c2ccc(S(=O)(=O)NC3CCCCC3)cc21 [TKD1020, N^2,N^7-dicyclohexyl-9-((prop-2-yn-1-yloxy)imino)-9H-fluorene-2,7-disulfonamide]
- EC50 [1, 4]: 10.8 µM

Compound: O=S(=O)(NC1CCCCC1)c1ccc2c(c1)C(=NO)c1cc(S(=O)(=O)NC3CCCCC3)ccc1-2 [FIN56, reference compound]
- EC50 ([1]; HT-1080 cells, compound alone, read-out: EC 50): 0.326 µM
- EC50 ([1]; Homo sapiens, HT-1080, 48 h, HT-1080 cells, 48 hour incubation, no inhibitor, read-out: EC50 (μM) of FIN56): 0.328 µM
- EC50 [1, 4]: 0.328 µM
- Slectivity in fold [EC50 (FIN56 + inhibitor)/ EC50 inhbitor] ([3]; DFOM (152 μM)): >60 fold
- Slectivity in fold [EC50 (FIN56 + inhibitor)/ EC50 inhbitor] ([3]; Fer 1 (500 nM)): >90 fold
- Slectivity in fold [EC50 (FIN56 + inhibitor)/ EC50 inhbitor] ([3]; ZVAD 45 μM): 0.6 fold
- blocking of the compound's lethality by the apoptosis inhibitor pathway (ZVAD) ([3]; ZVAD 45 μM): did not block
- Slectivity in fold [EC50 (FIN56 + inhibitor)/ EC50 inhbitor] ([3]; aToc (100 μM)): 34.8 fold
- EC50 ([3]; cotreated with DFOM (152 μM)): > 20 µM
- EC50 ([3]; cotreated with Fer 1 (500 nM)): > 30 µM
- EC50 ([3]; cotreated with ZVAD (45 μM)): 0.196 µM
- EC50 ([3]; cotreated with aToc (100 μM)): 11.5 µM

Compound: N#CC1c2cc(S(=O)(=O)NC3CCCCC3)ccc2-c2ccc(S(=O)(=O)NC3CCCCC3)cc21 [MH1013, 9-cyano-N^2,N^7-dicyclohexyl-9H-fluorene-2,7-disulfonamide]
- EC50 [1, 4]: 13.4 µM
